Results from patent publication US20100266503A1, “Breast Cancer Methods, Medicaments and Agents” (priority 2007, published 2010).
Non-standard residues stand in square brackets, D forms with d. Residues, ends and D or L forms follow the SMILES beside them. *: point of attachment. Nle = CCCC[C@H](N)C(=O)O; Cbz = O=C(OCc1ccccc1)*

Tested on: MCF-7, T47D, ZR-75-1, MDA-MB-231 and Cal-51 breast cancer cell lines
Test: Sulphorhodamine B Assay (SRB) of GSI1 on breast cancer cell lines
Type: cell-based
Excerpt: Graphs illustrating the effects of GSI1, at different concentrations, on proliferation in five breast cancer cell lines: (A) MCF-7 cells, (B) T47D cells, (C) ZR-75-1 cells, (D) MDA-MB-231 cells and (E) Cal- 51 cells.
The effect of GSI1 on cell proliferation was investigated further in a range of breast cancer cell lines, including both oestrogen receptor positive and negative cell lines, using the Sulphorhodamine B Assay (SRB) to measure cell numbers as illustrated in FIG. 7. […] 6,000 cells were plated in 6 replicates and allowed to adhere overnight. The media was replaced the following day with media containing GSI1 at different concentrations (100 nM, 250 nM, 500 nM, 750 nM, 1 μM, 2 μM, 5 μM, and 10 μM) apart from the control which was media+dimethyl sulphoxide (the solvent for GSI1 at a concentration equal to the highest in the GSI1 treated wells). One plate of cells was subjected to the Sulphorhodamine B Assay (SRB), which […] is an accepted measure of cell numbers, on this day, day 0. Briefly, cells were fixed by adding 100 μl/well of ice-cold 40% Trichloroacetic acid to each well and leaving for 60 mins. Plates were washed 5 times in running tap water (allowing water to fill wells indirectly) and stained with 100 μl/well SRB reagent (0.4% w/v SRB [Sigma-s-9012] in 1% Acetic acid) for 30 mins. Plates were washed 5 times in 1% acetic acid and left overnight to dry before solubilizing with 100 μl/well 10 mM Tris-base. Plates were subject to shaking for 30 mins and absorbance read at 492 nm. The remaining plates were then assayed at 2-day intervals up to day 10. […] Thus, it was evident that irrespective of the cell characteristics that 1 μM and higher concentrations were an effective killing dose and doses as low as 250 nM were inhibitory to cell proliferation.

CCCC[C@@H](C=O)NC(=O)[C@H](CC(C)C)NC(=O)[C@H](CC(C)C)NC(=O)OCc1ccccc1 [GSI1, Z-Leu-Leu-Nle-CHO] (Cbz-Leu-Leu-[Nle]-aldehyde)
effect of the 1 μM treatment on cell numbers (1 μM, each cell line, assayed up to day 10): greatly reduced cell numbers | effective killing dose (irrespective of cell characteristics, up to day 10): ≥ 1 µM | concentration effective at killing / lethal to breast cancer cell lines (summary statement): 1 µM | lowest dose inhibitory to cell proliferation (up to day 10): 250 nM
